Read-outs that look alike come from different tables or passages of the source.
Legend:
[1] = tested on: MCF-10A non-transformed human breast epithelial cells; assay: Cytotoxicity, SRB binding assay; format: cell-based; details: 48 h
Protocol: (§1) To further assess the biological efficacies of the Compounds in intact cells, each Compound was evaluated for cytotoxicity using human cancer cell lines. These experiments followed methods that have been extensively used. Cell lines tested included MCF-7 human breast adenocarcinoma cells and MCF-10A non-transformed human breast epithelial cells. The indicated cell lines were treated with varying doses of the test Compound for 48 h. Cell survival was then determined using the SRB binding assay (Skehan et al., 1990, J Natl Cancer Inst 82: 1107), and the concentration of compound that inhibited proliferation by 50% (the IC50) was calculated. Values (in μM) represent the mean±sd for replicate trials.

[2] = tested on: recombinant human SK; assay: Inhibition of recombinant human SK, LC/MS/MS assay; format: biochemical; details: 6 μg/ml compound
Protocol: SK activity is measured by incubation of the recombinant SK with [^3H]sphingosine and 1 mM ATP under defined conditions, followed by extraction of the assay mixture with chloroform:methanol under basic conditions. […] Radioactivity in aliquots of the aqueous phase is then quantified as a measure of [^3H]S1P formation.
In an alternate assay procedure, the recombinant human SK was incubated with unlabeled sphingosine and ATP as described above. After 30 minutes, the reactions were terminated by the addition of acetonitrile to directly extract the newly synthesized S1P. The amount of S1P in the samples is then quantified as follows. C17 base D-erythro-sphingosine and C17 SIP are used as internal standards for sphingosine and S1P, respectively. […] The lipids are then fractionation by High-Performance Liquid Chromatography using a C8-reverse phase column eluted with 1 mM methanolic ammonium formate/2 mM aqueous ammonium formate. […] Calibration curves are generated by plotting the peak area ratios of the synthetic standards for each sphingolipid, and used to determine the normalized amounts of sphingosine and S1P in the samples.
Each Compound of this invention was tested for its ability to inhibit recombinant SK using the LC/MS/MS assay described above.

[3] = tested on: MCF-7 human breast adenocarcinoma cells; assay: Cytotoxicity, SRB binding assay; format: cell-based
Protocol: as §1

[4] = inhibition of cell proliferation, read-out: MCF-10A IC50
[5] = MCF7, inhibition of cell proliferation, 48 h, read-out: MCF-7 IC50

Structure (SMILES): O=C(Nc1ccc(O)cc1)C12CC3CC(CC(C3)C1)C2 [Compound 5, Adamantane-1-carboxylic acid (4-hydroxy-phenyl)-amide]
- IC50 [1, 4]: 30 µM
- Recombinant SK (% inhibition) [2]: 100%

Structure (SMILES): N#CCc1ccc(NC(=O)C23CC4CC(CC(C4)C2)C3)cc1 [Compound 10, Adamantane-1-carboxylic acid (4-cyanomethyl-phenyl)-amide]
- IC50 [1, 4]: 170 µM
- Recombinant SK (% inhibition) [2]: 3%

Structure (SMILES): O=C(NCCc1cccc(Oc2ccccc2)c1)C12CC3CC(C1)CC(c1ccc(Cl)cc1)(C3)C2 [Compound 46, 3-(4-Chloro-phenyl)-adamantane-1-carboxylic acid [2-(3-phenoxy-phenyl)-ethyl]-amide]
- IC50 [3, 5]: 91 µM
- Recombinant SK (% inhibition) [2]: 4%

Structure (SMILES): O=C(NCCc1ccc(Oc2ccccc2)cc1)C12CC3CC(C1)CC(c1ccc(Cl)cc1)(C3)C2 [Compound 47, 3-(4-Chloro-phenyl)-adamantane-1-carboxylic acid [2-(4-phenoxy-phenyl)-ethyl]-amide]
- IC50 [3, 5]: 16 µM
- Recombinant SK (% inhibition) [2]: 26%

Structure (SMILES): O=C(NCc1ccc(-c2ccccc2)cc1)C12CC3CC(C1)CC(c1ccc(Cl)cc1)(C3)C2 [Compound 49, 3-(4-Chloro-phenyl)-adamantane-1-carboxylic acid (biphenyl-4-ylmethyl)-amide]
- IC50 [3, 5]: 68 µM
- Recombinant SK (% inhibition) [2]: 33%

Structure (SMILES): CN1CCC(NC(=O)C23CC4CC(CC(C4)C2)C3)CC1 [Compound 50, Adamantane-1-carboxylic acid (1-methyl-piperidin-4-yl)-amide]
- IC50 [3, 5]: 181 µM
- Recombinant SK (% inhibition) [2]: 0%

Structure (SMILES): CC(C)(C)NCCCNC(=O)C12CC3CC(C1)CC(c1ccc(Cl)cc1)(C3)C2 [Compound 53, 3-(4-Chloro-phenyl)-adamantane-1-carboxylic acid (3-tert-butylamino-propyl)-amide]
- IC50 [3, 5]: 11 µM
- Recombinant SK (% inhibition) [2]: 52%

Structure (SMILES): O=C(NCCCN1CCCC1)C12CC3CC(C1)CC(c1ccc(Cl)cc1)(C3)C2 [Compound 54, 3-(4-Chloro-phenyl)-adamantane-1-carboxylic acid (3-pyrrolidin-1-yl-propyl)-amide]
- IC50 [3, 5]: 11 µM
- Recombinant SK (% inhibition) [2]: 95%

Structure (SMILES): CN1CCCC1CCNC(=O)C12CC3CC(CC(C3)C1)C2 (stereo not drawn) [Compound 56, Adamantane-1-carboxylic acid [2-(1-methyl-pyrrolidin-2-yl)-ethyl]-amide]
- IC50 [3, 5]: 10 µM
- Recombinant SK (% inhibition) [2]: 33%

Structure (SMILES): O=C(NCc1ccncc1)C12CC3CC(CC(C3)C1)C2 [Compound 60, Adamantane-1-carboxylic acid (pyridin-4-ylmethyl)-amide]
- IC50 [3, 5]: 7 µM
- Recombinant SK (% inhibition) [2]: 0%

Structure (SMILES): O=C(Nc1ncnc2[nH]cnc12)C12CC3CC(C1)CC(c1ccc(Cl)cc1)(C3)C2 [Compound 73, 3-(4-Chloro-phenyl)-adamantane-1-carboxylic acid (9H-purin-6-yl)-amide]
- IC50 [3, 5]: 80 µM
- Recombinant SK (% inhibition) [2]: 53%

Structure (SMILES): Fc1cc(C(F)(F)F)ccc1CNCC12CC3CC(C1)CC(c1ccc(Cl)cc1)(C3)C2 [Compound 78, [3-(4-Chloro-phenyl)-adamantan-1-ylmethyl]-(2-fluoro-4-trifluoromethyl-benzyl)-amine]
- IC50 [3, 5]: 30 µM
- Recombinant SK (% inhibition) [2]: 43%

Structure (SMILES): CN1CCN(NCC23CC4CC(C2)CC(c2ccc(Cl)cc2)(C4)C3)CC1 [Compound 83, [3-(4-Chloro-phenyl)-adamantan-1-ylmethyl]-(4-methyl-piperazin-1-yl)-amine]
- IC50 [3, 5]: 5 µM
- Recombinant SK (% inhibition) [2]: 60%

Structure (SMILES): CN1CCCC1CCNCC12CC3CC(C1)CC(c1ccc(Cl)cc1)(C3)C2 (stereo not drawn) [Compound 86, [3-(4-Chloro-phenyl)-adamantan-1-ylmethyl]-[2-(1-methyl-pyrrolidin-2-yl)-ethyl]-amine]
- IC50 [3, 5]: 5 µM
- Recombinant SK (% inhibition) [2]: 6%

Structure (SMILES): Clc1ccc(C23CC4CC(CC(CNCc5ccncc5)(C4)C2)C3)cc1 [Compound 88, [3-(4-Chloro-phenyl)-adamantan-1-ylmethyl]-pyridin-4-ylmethyl-amine]
- IC50 [3, 5]: 11 µM
- Recombinant SK (% inhibition) [2]: 1%

Structure (SMILES): CC(N)C12CC3CC(CC(c4ccc(Cl)cc4)(C3)C1)C2 (stereo not drawn) [Compound 91, 1-[3-(4-Chloro-phenyl)-adamantan-1-yl]-ethylamine]
- IC50 [1, 4]: 4 µM
- IC50 [3, 5]: 5 µM

Structure (SMILES): CC(C)NC(C)C12CC3CC(CC(c4ccc(Cl)cc4)(C3)C1)C2 (stereo not drawn) [Compound 92, {1-[3-(4-Chloro-phenyl)-adamantan-1-yl]-ethyl}-isopropyl-amine]
- IC50 [1, 4]: 6 µM
- IC50 [3, 5]: 2 µM

Structure (SMILES): CC(Nc1ccccc1)C12CC3CC(CC(c4ccccc4)(C3)C1)C2 (stereo not drawn) [Compound 93, Phenyl-[1-(3-phenyl-adamantan-1-yl)-ethyl]-amine]
- IC50 [3, 5]: 15 µM
- Recombinant SK (% inhibition) [2]: 70%

Structure (SMILES): CC(Nc1ccccc1)C12CC3CC(CC(c4ccc(Cl)cc4)(C3)C1)C2 (stereo not drawn) [Compound 95, {1-[3-(4-Chloro-phenyl)-adamantan-1-yl]-ethyl}-phenyl-amine]
- IC50 [1, 4]: 68 µM
- IC50 [3, 5]: 22 µM

Structure (SMILES): CC(NCc1ccccc1)C12CC3CC(CC(C3)C1)C2 (stereo not drawn) [Compound 96, (1-Adamantan-1-yl-ethyl)-benzyl-amine]
- IC50 [1, 4]: 9 µM
- IC50 [3, 5]: 9 µM

Structure (SMILES): CC(NC1CCN(C)CC1)C12CC3CC(CC(C3)C1)C2 (stereo not drawn) [Compound 104, (1-Adamantan-1-yl-ethyl)-(1-methyl-piperidin-4-yl)-amine]
- IC50 [3, 5]: 34 µM
- Recombinant SK (% inhibition) [2]: 0%

Structure (SMILES): CC(NC1CCN(C)CC1)C12CC3CC(CC(c4ccccc4)(C3)C1)C2 (stereo not drawn) [Compound 105, (1-Methyl-piperidin-4-yl)-[1-(3-phenyl-adamantan-1-yl)-ethyl]-amine]
- IC50 [1, 4]: 14 µM
- IC50 [3, 5]: 5 µM

Structure (SMILES): CC(NC1CCN(C)CC1)C12CC3CC(CC(c4ccc(F)cc4)(C3)C1)C2 (stereo not drawn) [Compound 106, {1-[3-(4-Fluoro-phenyl)-adamantan-1-yl]-ethyl}-(1-methyl-piperidin-4-yl)-amine]
- IC50 [1, 4]: 6 µM
- IC50 [3, 5]: 2 µM

Structure (SMILES): O=C(O)C12CC3CC(C1)CC(c1ccccc1)(C3)C2 [Compound 121, 3-Phenyl-adamantane-1-carboxylic acid]
- IC50 [1, 4]: 176 µM
- IC50 [3, 5]: 13 µM

Structure (SMILES): O=C(O)C12CC3CC(C1)CC(c1ccc(F)cc1)(C3)C2 [Compound 122, 3-(4-Fluoro-phenyl)-adamantane-1-carboxylic acid]
- IC50 [1, 4]: 182 µM
- IC50 [3, 5]: 155 µM

Structure (SMILES): O=C(O)C12CC3CC(C1)CC(c1ccc(Cl)cc1)(C3)C2 [Compound 123, 3-(4-Chloro-phenyl)-adamantane-1-carboxylic acid]
- IC50 [1, 4]: 95 µM
- IC50 [3, 5]: 48 µM

Structure (SMILES): CC(=O)C12CC3CC(CC(C3)C1)C2 [Compound 124, 1-Adamantan-1-yl-ethanone]
- IC50 ([1]; read-out: MCF-10A IC50 (μM)): 105 µM
- IC50 ([3]; MCF7, 48 h, read-out: MCF-7 IC50 (μM)): 11 µM

Structure (SMILES): CC(=O)C12CC3CC(C1)CC(c1ccccc1)(C3)C2 [Compound 125, 1-(3-Phenyl-adamantan-1-yl)-ethanone]
- IC50 [1, 4]: 59 µM
- IC50 [3, 5]: 8 µM

Structure (SMILES): CC(=O)C12CC3CC(C1)CC(c1ccc(F)cc1)(C3)C2 [Compound 126, 1-[3-(4-Fluoro-phenyl)-adamantan-1-yl]-ethanone]
- IC50 [1, 4]: 6 µM
- IC50 [3, 5]: 2 µM

Structure (SMILES): CC(=O)C12CC3CC(C1)CC(c1ccc(Cl)cc1)(C3)C2 [Compound 127, 1-[3-(4-Chloro-phenyl)-adamantan-1-yl]-ethanone]
- IC50 [1, 4]: 16 µM
- IC50 [3, 5]: 6 µM

Structure (SMILES): COC(=O)C(C(=O)OC)C(=O)C12CC3CC(CC(C3)C1)C2 [Compound 128, 2-(Adamantane-1-carbonyl)-malonic acid dimethyl ester]
- IC50 [1, 4]: 63 µM
- IC50 [3, 5]: 34 µM

Structure (SMILES): COC(=O)C(C(=O)OC)C(=O)C12CC3CC(C1)CC(c1ccc(Cl)cc1)(C3)C2 [Compound 129, 2-[3-(4-Chloro-phenyl)-adamantane-1-carbonyl]-malonic acid dimethyl ester]
- IC50 [1, 4]: 105 µM
- IC50 [3, 5]: 16 µM

Structure (SMILES): O=C(/C=C/c1ccc(Cl)cc1)C12CC3CC(C1)CC(c1ccc(Cl)cc1)(C3)C2 [Compound 130, 3-(4-Chloro-phenyl)-1-[3-(4-chloro-phenyl)-adamantan-1-yl]-propenone]
- IC50 [3, 5]: 7 µM
- Recombinant SK (% inhibition) [2]: 38%

Structure (SMILES): N#Cc1ccc(/C=C/C(=O)C23CC4CC(C2)CC(c2ccc(Cl)cc2)(C4)C3)cc1 [Compound 131, 4-{3-[3-(4-Chloro-phenyl)-adamantan-1-yl]-3-oxo-propenyl}-benzonitrile]
- IC50 [3, 5]: 27 µM
- Recombinant SK (% inhibition) [2]: 41%

Structure (SMILES): O=C(/C=C/c1ccc(Cl)nc1)C12CC3CC(C1)CC(c1ccc(Cl)cc1)(C3)C2 [Compound 134, 1-[3-(4-Chloro-phenyl)-adamantan-1-yl]-3-(6-chloro-pyridin-3-yl)-propenone]
- IC50 [3, 5]: 16 µM
- Recombinant SK (% inhibition) [2]: 52%

Structure (SMILES): O=C(/C=C/c1cnc[nH]1)C12CC3CC(C1)CC(c1ccc(Cl)cc1)(C3)C2 [Compound 135, 1-[3-(4-Chloro-phenyl)-adamantan-1-yl]-3-(1H-imidazol-4-yl)-propenone]
- IC50 [3, 5]: 3 µM
- Recombinant SK (% inhibition) [2]: 64%

— patent US8557800B2, “Sphingosine kinase inhibitors” (Apogee Biotechnology Corporation, priority 2005, dated 2013)
